The target in one assay is T1, AXL (Homo sapiens, UniProt P30530).
T1 construct: recombinant phosphorylated forms of the kinase domains for AXL, MER and TYRO3; purchased ThermoFisher Scientific PV4275
T1 sequence (P30530 536-807 limits assumed): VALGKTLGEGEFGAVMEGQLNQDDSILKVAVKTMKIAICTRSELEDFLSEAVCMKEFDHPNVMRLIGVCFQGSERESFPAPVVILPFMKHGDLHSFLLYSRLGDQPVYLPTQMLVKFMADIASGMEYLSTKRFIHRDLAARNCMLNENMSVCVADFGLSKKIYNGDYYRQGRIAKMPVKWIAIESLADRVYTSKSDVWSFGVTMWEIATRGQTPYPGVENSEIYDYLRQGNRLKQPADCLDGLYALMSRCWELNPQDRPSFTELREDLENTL
Put plainly: TR-FRET kinase assay, phospho-AXL. The class given is biochemical. Particulars: average from multiple lots, n=18; read-out: IC50 against AXL. The method, then: The biochemical potency of Compound 1 to inhibit the enzymatic activity of TAM family members was investigated by TR-FRET assays using recombinant phosphorylated forms of the kinase domains for AXL, MER and TYRO3.
Phospho-AXL (pAXL), cMER and Tyro3 kinase activities were measured by time-resolved fluorescence energy transfer (TR-FRET) assays. Autophosphorylation of AXL was carried out before the kinase assay by incubating the recombinant AXL protein (ThermoFisher Scientific; #PV4275) in buffer containing 50 mM Tris, pH 7.5, 0.2 mg/mL AXL, 5 mM ATP, 20 mM MgCl2 and 2 mM dithiothreitol (DTT) at room temperature for 1 hour. The kinase assay buffer contained 50 mM HEPES, pH 7.5, 10 mM MgCl2, 1 mM EGTA, 0.01% NP-40 and 2 mM DTT. Enzyme solutions of 0.69 nM phospho-AXL, or 0.088 nM cMER (Carna Biosciences, Kobe, Japan; #08-108) or 0.137 nM TYRO3 (Life Technologies, PR7480A) were prepared in assay buffer. […] The plate was incubated for 30 minutes at room temperature, and homogenous time resolved fluorescence (HTRF) signal was measured on a PheraStar FS plate reader (BMG Labtech, Ortenberg, Germany). Percent inhibition was calculated for each concentration, and half maximal inhibitory concentration (IC50) value was generated from curve fitting with GraphPad Prism software (San Diego, Calif.).
Background: TR-FRET usually uses a lanthanide donor and a delayed reading to cut background.

Assay [1] has as its system TYRO3-expressing BAF3 cells. Put plainly: BAF3-TYRO3 cell proliferation assay (CellTiter-Glo). It counts as cell-based, mouse. An excerpt:
(§1) To evaluate the cellular potency and selectivity within the TAM receptor family, mouse BAF3 cell lines with stable expression of AXL, MER, or TYRO3 were generated.
(§2) The cytoplasmic domain of AXL, MER, or TYRO3 fused with dimerization sequence and HA tag was cloned into a pMSCV (murine stem cell virus) vector with a puromycin-resistance marker to generate three constructs individually by electroporation into BAF3 cells. Single clones that were IL-3-independent and puromycin-resistant were selected and characterized. To evaluate effects on BAF3 cell proliferation, 1000 cells/well of BAF3, BAF3-AXL, BAF3 MER, or BAF3-TYRO3 cells were treated in the presence or absence of Compound 1 at various concentrations (10 concentration points with a three-fold dilution factor from the highest concentration of 10 μM) diluted in RPMI-1640 with 2% FBS for 48 hours in a 384-well plate. Cell viability was measured by ATP assay (CellTiter-Glo Assay, Promega, Madison, Wis.) according to the manufacturer's procedure. The data were converted to percent inhibition relative to DMSO control, and IC50 curves were fitted using GraphPad Prism software.
In general terms: Cellular ATP, detected with luciferase, serves as a proxy for viable cell number.

For another assay, the system named is parental BAF3 cells. Put plainly: Parental BAF3 cell proliferation assay (CellTiter-Glo). The class given is cell-based. Particulars: Mus musculus, 48 hours, 2% FBS.
From the text: as §1, §2

Turning to `CC(C)C(=O)N1CCC(c2cc(-c3ccc(NC(=O)c4cn(C(C)C)c(=O)n(-c5ccccn5)c4=O)cc3)c3c(N)ncnn23)CC1` [Compound 1, N-(4-(4-Amino-7-(1-isobutyrylpiperidin-4-yl)pyrrolo[1,2-f][1,2,4]triazin-5-yl)phenyl)-1-isopropyl-2,4-dioxo-3-(pyridin-2-yl)-1,2,3,4-tetrahydropyrimidine-5-carboxamide], the IC50 (as a rule, the concentration at which inhibition is half-maximal) was 0.61 ± 0.31 nM on AXL; 498 ± 161 nM in assay [1] (Mus musculus, BaF3, 48 hours, 2% FBS, read-out: IC50, growth of TYRO3-expressing BAF3 cells); over 4 µM in the assay on parental BAF3 cells. Also, the “selectivity against TYRO3 (cellular)” value in assay [1] (BAF3 transfectants) is given as over 30 fold.

The record behind these values is patent US12214036B2, “Combination therapy comprising AXL/MER and PD-1/PD-L1 inhibitors” (Incyte Corporation, priority 2020, dated 2025).
